Reference: patent US10556905B2, “Processes for preparing a diazabicyclooctane compound” (priority 2012, dated 2020)

Experiments:
OXA-2 = molecular target: T1, OXA-2 (Escherichia coli, UniProt P0A1V9); assay: biochemical; parameters: species or system P. aeruginosa
T1 construct: AmpC, TEM-1, KPC-2 or OXA-2 domain excluding signal peptide was amplified with PCR; made in house; host or cells: Escherichia coli BL21 (DE3), pET-28b(+)

KPC-2 = molecular target: T2, KPC-2 (Klebsiella pneumoniae, UniProt Q9F663); assay: β-Lactamase inhibitory activity (nitrocefin hydrolysis), KPC-2; assay type: biochemical; settings: KPC-2 0.5 nM, 100 μM nitrocefin, pre-incubation 30° C. 10 minutes
T2 construct: AmpC, TEM-1, KPC-2 or OXA-2 domain excluding signal peptide was amplified with PCR; made in house; host or cells: Escherichia coli BL21 (DE3), pET-28b(+)
T2 sequence (Q9F663 25-293, looked up): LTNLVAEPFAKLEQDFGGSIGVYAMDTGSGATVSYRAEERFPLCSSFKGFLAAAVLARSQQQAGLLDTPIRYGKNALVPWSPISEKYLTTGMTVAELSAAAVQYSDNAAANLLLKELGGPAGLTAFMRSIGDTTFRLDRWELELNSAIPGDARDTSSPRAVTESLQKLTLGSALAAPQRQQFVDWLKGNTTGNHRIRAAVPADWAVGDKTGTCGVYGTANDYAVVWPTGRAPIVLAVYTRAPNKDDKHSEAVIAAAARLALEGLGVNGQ

TEM-1 = molecular target: T3, TEM-1 (Escherichia coli, UniProt P62593); assay: β-Lactamase inhibitory activity (nitrocefin hydrolysis), TEM-1; assay type: biochemical; settings: TEM-1 0.1 nM, 100 μM nitrocefin, pre-incubation 30° C. 10 minutes
T3 construct: AmpC, TEM-1, KPC-2 or OXA-2 domain excluding signal peptide was amplified with PCR; made in house; host or cells: Escherichia coli BL21 (DE3), pET-28b(+)
T3 sequence (P62593 24-286 limits assumed): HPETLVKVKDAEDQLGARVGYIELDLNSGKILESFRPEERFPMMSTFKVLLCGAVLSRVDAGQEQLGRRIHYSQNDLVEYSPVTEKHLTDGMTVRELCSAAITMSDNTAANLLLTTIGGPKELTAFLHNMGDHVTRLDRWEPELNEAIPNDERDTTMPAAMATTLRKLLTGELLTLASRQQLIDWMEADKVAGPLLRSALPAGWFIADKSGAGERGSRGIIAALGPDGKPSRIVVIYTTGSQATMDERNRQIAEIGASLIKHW
Protocol: Using Pseudomonas aeruginosa ATCCBAA-47 genome, plasmid pBR322, Klebsiella pneumoniae ATCCBAA-1705, and P. aeruginosa MSC17696 as a template, each DNA for encoding β-lactamase, AmpC, TEM-1, KPC-2 or OXA-2 domain excluding signal peptide was amplified with PCR. Each of the PCR product was incorporated into pET-28b(+)vector (Merck), introduced into Escherichia coli BL21 (DE3) (Merck), and, under induction of 1 mM isopropyl-β-D-(−)-thiogalactopyranoside (Nacalai Tesque), cultured overnight at 20° C. to express AmpC, TEM-1, KPC-2, and OXA-2. After the bacterial cell was collected, AmpC was purified from the cell extract obtained by ultrasonic treatment, using CM Sepharose Fast Flow (GE Healthcare) and HiTrap Heparin HP (GE Healthcare) at 4° C. TEM-1 was purified with HiTrap SPHP (GE Healthcare), HiTrap Q (GE Healthcare) and Mono Q (GE Healthcare), and KPC-2 was purified with HiTrap SPHP. OXA-2 was purified with HiTrap SPHP and HiTrap Heparin HP.
For the measurement of β-lactamase inhibitory activity, 100 μM (final concentration) nitrocefin (Oxoid) was used as a substrate, and 2.5% DMSO, 10 μg/mL bovine serum derived albumin (Sigma-Aldrich) and 50 mM phosphate buffer at pH 7.0 were used as a reaction solution. […] Nitrocefin was added to each well to be mixed therein, followed by incubation at 30° C. for 20 minutes, and Multiscan Ascent (Thermo Fisher Scientific) was used to measure 492 nm wavelength, thereby measuring nitrocefin hydrolytic activity of β-Lactamase, to determine enzyme inhibitory activity. […] As the inhibitory activity strength, less than 0.1 μM, less than 1 μM, less than 3 μM, less than 10 μM, and 10 μM or more were shown with A, B, C, D, and E respectively.

AmpC = molecular target: T4, AmpC (Pseudomonas aeruginosa, UniProt P24735); assay: biochemical
T4 construct: AmpC, TEM-1, KPC-2 or OXA-2 domain excluding signal peptide was amplified with PCR; made in house; host or cells: Escherichia coli BL21 (DE3), pET-28b(+)
T4 sequence (P24735 27-397): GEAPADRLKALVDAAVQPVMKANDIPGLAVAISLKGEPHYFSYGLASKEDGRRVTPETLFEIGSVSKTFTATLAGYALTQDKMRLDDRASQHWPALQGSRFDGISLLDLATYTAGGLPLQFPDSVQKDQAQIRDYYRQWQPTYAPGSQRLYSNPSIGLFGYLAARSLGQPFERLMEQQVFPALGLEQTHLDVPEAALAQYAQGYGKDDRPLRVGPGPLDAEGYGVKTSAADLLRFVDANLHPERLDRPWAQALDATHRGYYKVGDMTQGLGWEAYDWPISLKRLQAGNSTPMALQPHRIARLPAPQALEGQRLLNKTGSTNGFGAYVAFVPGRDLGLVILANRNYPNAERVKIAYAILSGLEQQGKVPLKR

T1 sequence (P0A1V9 22-275): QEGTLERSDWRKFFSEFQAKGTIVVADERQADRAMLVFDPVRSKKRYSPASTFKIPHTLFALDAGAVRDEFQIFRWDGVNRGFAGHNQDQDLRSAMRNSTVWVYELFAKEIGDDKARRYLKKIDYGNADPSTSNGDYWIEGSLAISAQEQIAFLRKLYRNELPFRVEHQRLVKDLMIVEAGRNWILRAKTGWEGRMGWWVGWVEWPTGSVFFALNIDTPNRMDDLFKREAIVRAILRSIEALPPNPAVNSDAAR

Row | SMILES | IC50 (OXA-2) [nM] | IC50 (KPC-2) [nM] | IC50 (TEM-1) [nM] | IC50 (AmpC) [nM]
1 | O=C1CC[C@H](C(=O)NNC(=O)[C@@H]2CC[C@@H]3CN2C(=O)N3OS(=O)(=O)O)N1 [Example 42, Sodium (2S,5R)-7-oxo-N′-{[(2R)-5-oxopyrrolidin-2-yl]carbonyl}-6-(sulfooxy)-1,6-diazabicyclo[3.2.1]octane-2-carbohydrazide] | 1000 to 3000 | 100 to 1000 | 100 to 1000 | 100 to 1000
2 | O=C(NNC(=O)[C@@H]1CC[C@@H]2CN1C(=O)N2OS(=O)(=O)O)c1ccco1 [Example 43, Sodium (2S,5R)—N′-(furan-2-ylcarbonyl)-7-oxo-6-(sulfooxy)-1,6-diazabicyclo[3.2.1]octane-2-carbohydrazide] | 1000 to 3000 | 100 to 1000 | < 100 | 100 to 1000
3 | O=C(NNC(=O)[C@@H]1CC[C@@H]2CN1C(=O)N2OS(=O)(=O)O)c1cocn1 [Example 44, Sodium (2S,5R)—N′-(1,3-oxazol-4-ylcarbonyl)-7-oxo-6-(sulfooxy)-1,6-diazabicyclo[3.2.1]octane-2-carbohydrazide] | 1000 to 3000 | < 100 | < 100 | < 100
4 | O=C(NNC(=O)[C@@H]1CC[C@@H]2CN1C(=O)N2OS(=O)(=O)O)c1cccnc1 [Example 45, Sodium (2S,5R)-7-oxo-N′-(pyridine-3-ylcarbonyl)-6-(sulfooxy)-1,6-diazabicyclo[3.2.1]octane-2-carbohydrazide] | 1000 to 3000 | 100 to 1000 | < 100 | < 100
5 | O=C(NNC(=O)[C@@H]1CC[C@@H]2CN1C(=O)N2OS(=O)(=O)O)c1ccncc1 [Example 46, Sodium (2S,5R)-7-oxo-N′-(pyridine-4-ylcarbonyl)-6-(sulfooxy)-1,6-diazabicyclo[3.2.1]octane-2-carbohydrazide] | 1000 to 3000 | 100 to 1000 | < 100 | < 100
6 | CN(C)C(=O)NNC(=O)[C@@H]1CC[C@@H]2CN1C(=O)N2OS(=O)(=O)O [Example 47, Sodium N,N-dimethyl2-{[(2S,5R)-7-oxo-6-(sulfooxy)-1,6-diazabicyclo[3.2.1]oct-2-yl]carbonyl}hydrazinecarboxamide] | 3000 to 10000 | 100 to 1000 | < 100 | 100 to 1000
7 | CCN(CC)C(=O)NNC(=O)[C@@H]1CC[C@@H]2CN1C(=O)N2OS(=O)(=O)O [Example 48, Sodium N,N-diethyl2-{[(2S,5R)-7-oxo-6-(sulfooxy)-1,6-diazabicyclo[3.2.1]oct-2-yl]carbonyl}hydrazinecarboxamide] | 3000 to 10000 | 100 to 1000 | 100 to 1000 | < 100
8 | O=C(NNC(=O)N1CCOCC1)[C@@H]1CC[C@@H]2CN1C(=O)N2OS(=O)(=O)O [Example 50, Sodium (2S,5R)—N′-(morpholin-4-ylcarbonyl)-7-oxo-6-(sulfooxy)-1,6-diazabicyclo[3.2.1]octane-2-carbohydrazide] | 3000 to 10000 | 100 to 1000 | 100 to 1000 | < 100
9 | COC(=O)NNC(=O)[C@@H]1CC[C@@H]2CN1C(=O)N2OS(=O)(=O)O [Example 51, Sodium methyl 2-{[(2S,5R)-7-oxo-6-(sulfooxy)-1,6-diazabicyclo[3.2.1]oct-2-yl]carbonyl}hydrazinecarboxylate] | 1000 to 3000 | 100 to 1000 | < 100 | 100 to 1000
10 | CCOC(=O)NNC(=O)[C@@H]1CC[C@@H]2CN1C(=O)N2OS(=O)(=O)O [Example 52, Sodium ethyl 2-{[(2S,5R)-7-oxo-6-(sulfooxy)-1,6-diazabicyclo[3.2.1]oct-2-yl]carbonyl}hydrazinecarboxylate] | 1000 to 3000 | 100 to 1000 | < 100 | 100 to 1000
11 | CS(=O)(=O)NNC(=O)[C@@H]1CC[C@@H]2CN1C(=O)N2OS(=O)(=O)O [Example 54, Sodium (2S,5R)—N′-(methylsulfonyl)-7-oxo-6-(sulfooxy)-1,6-diazabicyclo[3.2.1]octane-2-carbohydrazide] | 100 to 1000 | 100 to 1000 | < 100 | < 100
